According to PubChem BioAssay (NCI):
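Dose response: 5 concentrations. Exposure: 48 h. Format: 96-well plates. Endpoint: linear interpolation; highest concentration if not reached. At the TGI there is no net growth.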

Key:
Assay in all cases: NCI tumour cell line growth inhibition, 48 h
[1] = test system: UACC-62 melanoma
[2] = test system: CCRF-CEM leukemia
[3] = test system: HCC-2998 colon
[4] = test system: SNB-75 CNS
[5] = test system: NCI-H522 lung
[6] = test system: HOP-62 NSCLC
[7] = test system: DMS 273 small cell lung
[8] = test system: SK-OV-3 ovarian
[9] = test system: EKVX NSCLC
[10] = test system: M19-MEL melanoma
[11] = test system: SF-539 CNS
[12] = test system: TK-10 renal
[13] = test system: K-562 leukemia
[14] = test system: OVCAR-3 ovarian
[15] = test system: A549 NSCLC
[16] = test system: OVCAR-8 ovarian
[17] = test system: SK-MEL-28 melanoma
[18] = test system: HOP-18 NSCLC
[19] = test system: IGROV1 ovarian
[20] = test system: UO-31 renal
[21] = test system: CAKI-1 renal
[22] = test system: XF 498 CNS
[23] = test system: SW-620 colon
[24] = test system: SF-295 CNS
[25] = test system: OVCAR-4 ovarian
[26] = test system: HCT-116 colon
[27] = test system: RPMI-8226 leukemia
[28] = test system: SNB-19 CNS
[29] = test system: COLO 205 colon
[30] = test system: NCI-H460 lung
[31] = test system: ACHN renal
[32] = test system: KM20L2 colon
[33] = test system: SN12C renal
[34] = test system: 786-0 renal
[35] = test system: SNB-78 CNS
[36] = test system: DLD-1 colon
[37] = test system: SK-MEL-2 melanoma
[38] = test system: NCI-H23 lung
[39] = test system: RXF-631 renal
[40] = test system: SR leukemia
[41] = test system: M14 melanoma
[42] = test system: SF-268 CNS
[43] = test system: HT29 colon
[44] = test system: SK-MEL-5 melanoma
[45] = test system: DMS 114 small cell lung
[46] = test system: HCT-15 colon
[47] = test system: HOP-92 NSCLC
[48] = test system: KM12 colon
[49] = test system: MALME-3M melanoma
[50] = test system: U251 CNS
[51] = test system: LXFL 529 NSCLC
[52] = test system: LOX IMVI melanoma
[53] = test system: NCI-H226 lung
[54] = test system: OVCAR-5 ovarian
[55] = test system: A498 renal
[56] = test system: HL-60(TB) leukemia
[57] = test system: MOLT-4 leukemia
[58] = test system: RXF 393 renal
[59] = test system: UACC-257 melanoma

Measured: TGI

C=C1C(=O)O[C@H]2[C@H]1[C@H](OC(=O)/C(C)=C\C)CC(=C)[C@@H]1[C@H](O)[C@H]3O[C@@]3(C)[C@@]12O
> 100 µM: [1] | [2] | [3] | [4] | [5] | [6] | [7] | [8] | [9] | [10] | [11] | [12] | [13] | [14] | [15] | [16] | [17] | [18] | [19] | [20] | [21] | [22] | [23] | [24] | [25] | [26] | [27] | [28] | [29] | [30] | [31] | [32] | [33] | [34] | [35] | [36] | [37] | [38] | [39] | [40] | [41] | [42] | [43] | [44] | [45] | [46] | [47] | [48] | [49] | [50] | [51] | [52]

CC(=O)NNc1nc(C)c(C(=O)NNC(=O)C(=O)Nc2ccccc2C#N)s1
> 100 µM: [1] | [2] | [3] | [53] | [4] | [5] | [54] | [6] | [7] | [8] | [9] | [10] | [11] | [12] | [13] | [14] | [15] | [16] | [17] | [18] | [19] | [20] | [21] | [55] | [23] | [24] | [25] | [26] | [27] | [28] | [29] | [30] | [56] | [31] | [32] | [33] | [34] | [35] | [36] | [37] | [38] | [39] | [40] | [41] | [42] | [43] | [44] | [57] | [58] | [45] | [46] | [47] | [48] | [49] | [50] | [51] | [59] | [52]
